Legend:
[1] = tested on: SKMEL-28 melanoma and U373 glioblastoma cells; test: Morphological evaluation by phase contrast microscopy / videomicroscopy; type: cell-based, human
Experimental: For the morphological evaluation of the effects induced by compounds 1 and 13, 6 × 10^4 cells were seeded on glass coverslips placed in 6 well plates a minimum 24 h before their treatment. At the end of the incubation period with the treatment, coverslips were rinsed once in PBS buffer and directly mounted on slides to allow visualization of the cell with an Axio.Imager.M2 microscope (G X40 and G X100).

[2] = tested on: SK-MEL-28 human melanoma and U373 glioblastoma cells; test: ER swelling / vacuole origin (CellLight ER-GFP, brightfield, TEM); type: cell-based; settings: SK-MEL-28 and U373 cells
Source text: To decipher the origin of vacuoles, fluorescent probes staining different cellular compartments were used: the lysosomal Red DND-99 LysoTracker®, the glibenclamide Red ER tracker®, the green FM MitoTracker® that were all purchased from Lifes Technologies (Invitrogen, Belgium) and used according to manufacturer’s instructions. The CellLight ER-GFP (Thermofisher, Belgium) staining of the ER is based on the transfection of a plasmid coding for a fusion protein made of GFP fused to the ER signal sequence of calreticulin and the KDEL ER retention signal. Briefly, 6 × 10^4 cells were seeded on glass coverslips in 6 well plates. After a minimum of 24 h, cells were treated or not with the compounds of interest. Note that concentration and duration of the treatment were determined separately for each compound prior to the experiment on the basis of the apparition of marked morphological changes in phase contrast microscopy. Sixteen hours before the end of the experiment, 4 µL/well of the reagent were added to allow transfection and expression of the GFP-fused protein by the cells. Coverslips were then washed twice in PBS and mounted on slides without fixation step to take captions with the Axio.Imager.M2 microscope (Carl Zeiss, Belgium). To evaluate the cellular distribution of 13, the Axio.Imager.M2 was specifically equipped with an M340L4 excitation source (Thorlabs) and the pseudoconfocal Zeiss ZEN deconvolution system kindly provided for demo by Carl Zeiss (Belgium) to allow direct visualization of the compound 13 itself thanks to its intrinsic fluorescent properties.
For TEM, cells were fixed with glutaraldehyde 2.5% (EM grade, Electron Microscopy Sciences, EMS) at 4 °C overnight, washed tree times in cacodylate buffer (pH 7.4) and postfixed 1 h at room temperature in 1% OsO4, (EMS), 1.5% potassium ferrocyanide (Sigma-Aldrich) in 0.15 M cacodylate buffer. This was immediately followed by a second incubation in 1% OsO4 for 1 h at room temperature. After washing in distilled water, samples were stained with 1% uranyl acetate (EMS) and serially dehydrated in increasing ethanol concentrations. Samples were then embedded in epoxy resin (Agar 100 resin, Agar Scientific Ltd) and left to polymerize for 2 days at 60 °C. Ultrathin sections (50–70 nm thick) were collected with a Leica UC6 ultra-microtome on formvar-carbon-coated copper grids and further stained with uranyl acetate and lead citrate by standard procedures. Observations were made on a Tecnai 10 transmission electron microscope (FEI) and images were captured with a Veleta camera and processed with SIS iTEM software (Olympus).

human TopIIa = target: T1, human TopIIa (Homo sapiens, UniProt P11388); test: Cell-free decatenation assay; type: biochemical
T1 construct: purchased TopoGen (Port Orange, FL, USA)
Experimental: The topoisomerase (Top) activity assay kit, including kinetoplast DNA (kDNA and recombinant human TopIIa enzyme, was obtained from TopoGen (Port Orange, FL, USA), agarose from PeqLab (Erlangen, Germany), 50 × TAE buffer from Roth (Karlsruhe, Germany) and ethidium bromide solution (10 mg/mL) from Sigma-Aldrich (Taufkirchen, Germany). Decatenation assays were performed as described previously[62] with slight modifications according to the manufacturer’s protocol. 100 µM of the recently described dual topoisomerase poison P8-D6 served as a positive control, and 5% DMSO as a solvent control. Briefly, the compounds were dissolved in DMSO and diluted to 20× the concentration to be tested. 1 µL of the resulting stock solutions were mixed with 18 µL of a buffer containing 200 ng kDNA and 1 mM ATP. Subsequently, 1 µL of a 1u/µL dilution of TopIIa enzyme was added and incubated at 37 °C for 30 min. Afterwards, the reaction was stopped by addition of Stop buffer, and electrophoresis was carried out on a 1% agarose gel in TAE buffer. The gel was stained with 0.5 µg/mL ethidium bromide, washed with water, and fluorescence images were captured with the LAS4000 system (Fujifilm, Duesseldorf, Germany). All steps were carried out on ice.

RKO/p53ko = test: MTT assay, RKO/p53ko; type: cell-based; settings: 72 h, read-out: IC50 determined by MTT assays, RKO/p53ko
Source text: Cancer cell lines were obtained from either the European Collection of Cell Cultures (ECACC; Salisbury, UK) or the American Type Culture Collection (ATCC; Manassas, VA). The two glioma cell lines were the U373 (ECACC code 08061901) and Hs683 (ATCC HTB-138) cell lines. The carcinoma cell lines were the A549 non-small cell carcinoma cell line (ATCC code CCL 185) and the MCF-7 mammary breast carcinoma cell line (ATCC code HTB-22). The melanoma cell lines were the mouse B16F10 cells (ATCC code CRL-6475) and the human SKMEL-28 cells (ATCC code HTB-72). The ovarian cancer cell line A2780 and its cisplatin-resistant subline A2780cis were obtained from Sigma-Aldrich (St. Louis, MO, USA). Colon cancer HCT116 cells were obtained from ATCC (CCL-247) and the oxaliplatin-resistant subline HCT116/OxR established in the W. Berger lab[59]. The HeLa cell derivative KB-3-1 and the colchicine-selected, highly ABCB1-overexpressing subline KB-C-1 were generously donated by Dr. D. W. Shen, Bethesda, MD. RKOp53wt colon cancer cells together with the RKOp53KO (homozygous knock-out) subline[60] were generously provided by Dr. Vogelstein from John Hopkins University, Baltimore. The correct origin of all cell models was confirmed by STR during performance of the experiments. All cell lines were cultured in RPMI1640 culture medium supplemented with 10% heat-inactivated fetal bovine serum, 2% L-glutamine (0.6 mg/mL), 2% penicillin/streptomycin (200 IU/mL and 200 μg/mL) and 0.1 mg/mL gentamicin.
The MTT (3-(4,5-dimethylthiazol-2-yl)-2,5-diphenyl tetrazolium bromide) colorimetric assay has been conducted as described previously. Briefly, cells were seeded 24 h before their treatment with each compound for a period of 72 h. The concentrations tested ranged from 10 nM to 100 µM. Each assay was conducted in sextuplicates. The number of independent experiments is mentioned in the legend of the tables.
SI Table 1: IC50 determined by MTT assays. Mean concentration (± standard deviation) in µM required to
reduce the viability of cells by 50% after a 72 h treatment relative to the control.
Parental sensitive models Drug-resistant models

T1 sequence (P11388 whole entry): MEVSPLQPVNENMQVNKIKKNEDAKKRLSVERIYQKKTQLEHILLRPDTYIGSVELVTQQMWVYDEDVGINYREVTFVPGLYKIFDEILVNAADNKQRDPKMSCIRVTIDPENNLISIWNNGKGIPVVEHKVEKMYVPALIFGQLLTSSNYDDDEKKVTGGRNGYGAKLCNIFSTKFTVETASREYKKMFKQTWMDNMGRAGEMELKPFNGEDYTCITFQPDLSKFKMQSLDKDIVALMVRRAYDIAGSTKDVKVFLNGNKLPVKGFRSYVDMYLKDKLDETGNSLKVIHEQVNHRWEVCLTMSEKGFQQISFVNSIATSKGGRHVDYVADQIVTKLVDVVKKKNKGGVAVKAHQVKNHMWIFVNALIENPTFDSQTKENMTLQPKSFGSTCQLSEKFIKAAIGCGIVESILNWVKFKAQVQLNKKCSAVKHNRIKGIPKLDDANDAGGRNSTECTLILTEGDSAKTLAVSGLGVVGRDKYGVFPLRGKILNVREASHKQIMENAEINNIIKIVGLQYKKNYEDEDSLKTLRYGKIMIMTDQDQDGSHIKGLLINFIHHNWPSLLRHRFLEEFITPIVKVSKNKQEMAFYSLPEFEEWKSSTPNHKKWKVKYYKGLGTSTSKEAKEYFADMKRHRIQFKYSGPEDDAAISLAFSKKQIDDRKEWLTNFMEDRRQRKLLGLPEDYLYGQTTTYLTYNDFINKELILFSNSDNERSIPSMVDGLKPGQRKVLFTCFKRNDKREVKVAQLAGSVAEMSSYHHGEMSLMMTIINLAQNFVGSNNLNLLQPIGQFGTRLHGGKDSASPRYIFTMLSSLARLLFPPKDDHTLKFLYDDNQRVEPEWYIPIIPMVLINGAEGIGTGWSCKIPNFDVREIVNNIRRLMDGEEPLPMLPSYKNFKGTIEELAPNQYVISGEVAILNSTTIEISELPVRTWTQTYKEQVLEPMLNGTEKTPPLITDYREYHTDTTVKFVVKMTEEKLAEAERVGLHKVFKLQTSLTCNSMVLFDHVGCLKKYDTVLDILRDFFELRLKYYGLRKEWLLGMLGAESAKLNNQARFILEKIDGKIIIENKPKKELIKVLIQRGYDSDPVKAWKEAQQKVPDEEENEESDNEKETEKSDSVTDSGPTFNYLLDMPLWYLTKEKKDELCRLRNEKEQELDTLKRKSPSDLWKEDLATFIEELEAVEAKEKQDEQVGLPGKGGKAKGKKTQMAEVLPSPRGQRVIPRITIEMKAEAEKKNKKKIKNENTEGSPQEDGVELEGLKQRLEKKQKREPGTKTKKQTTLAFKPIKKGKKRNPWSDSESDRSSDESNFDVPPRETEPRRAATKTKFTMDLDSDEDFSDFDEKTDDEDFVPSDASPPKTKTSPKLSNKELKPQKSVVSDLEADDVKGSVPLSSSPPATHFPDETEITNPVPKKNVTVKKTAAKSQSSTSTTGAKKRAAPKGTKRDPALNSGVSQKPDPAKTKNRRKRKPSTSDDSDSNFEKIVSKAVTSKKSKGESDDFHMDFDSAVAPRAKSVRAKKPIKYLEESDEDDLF

| Compound | time to severe vacuolization ([1]; SKMEL-28 and U373 respectively) | ER swelling / ER-derived vacuolization [2] | concentration from which TopIIa inhibition trend was observed (human TopIIa) | concentration significantly different from the solvent control (TopIIa inhibition) (human TopIIa) | IC50 (RKO/p53ko) | time to cellular shrinkage ([1]; SKMEL-28 and U373) | inhibition at 500 µM (human TopIIa; at 500 µM, read-out: TopoIIa inhibition) |
| --- | --- | --- | --- | --- | --- | --- | --- |
| CC1(C=CCCCc2ccc3ccc4cccc5ccc2c3c45)C=C2C(=O)C3(O)OC(=O)C4(CCCC(C)(C)C34)C2(O)CC1 (centres unmarked) [Compound 13] | 15 to 24 h | severe swelling of the ER | ≥ 1 µM | ≥ 1 µM | 1500 ± 50 nM |  |  |
| C=C[C@]1(C)C=C2C(=O)[C@@]3(O)OC(=O)[C@@]4(CCCC(C)(C)[C@H]34)[C@@]2(O)CC1 [Compound 1, sphaeropsidin A, reference compound] |  |  |  |  | 1500 ± 100 nM | ≤ 6 h | ~50% |
| CC1(C=CCCCc2ccc3ccc4cccc5ccc2c3c45)C=C2C(O)C3(O)OC(=O)C4(CCCC(C)(C)C34)C2(O)CC1 (centres unmarked) [Compound 16] |  | severe ER-swelling | ≥ 1 µM |  | 6900 ± 400 nM |  |  |

Source: article PMC11199504, “New hemisynthetic derivatives of sphaeropsidin phytotoxins triggering severe endoplasmic reticulum swelling in cancer cells” (Scientific Reports, 2024)
